Values of other authors as cited in PubChem BioAssay AID1259409 (Chemical Carcinogenesis Research Information System (CCRIS), 2018).

Tested on: rodent chemically induced tumor inhibition, incidence and multiplicity
Assay: CCRIS tumor inhibitor studies

Structure (SMILES): NCCCN
- tumour outcome (control, treated, inhibition, significance) (Carcinogen: AZOXYMETHANE, 25843-45-2, Dose [Inhibitor]: 0, 2.5 G/L IN DRINKING WATER AD LIBITUM FOR DURATION OF STUDY (STUDY DURATION: 40 WK), Route [Inhibitor]: ORAL, Species: RAT, Strain/Sex: WISTAR/MALE, Target Tissue: Type of Lesion: INTESTINE: TUMOR, Dose [Carcinogen]: 7.4 MG/KG BW IN 0.9% SALINE 1/WK FOR 10 WK, Promoter: BOMBESIN, 31362-50-2): 20/20 (100%), 11/20 (55%), 45%, p<0.01
- tumour outcome (control, treated, inhibition, significance) (Carcinogen: AZOXYMETHANE, 25843-45-2, Dose [Inhibitor]: 0, 2.5 G/L IN DRINKING WATER FOR DURATION OF STUDY (STUDY DURATION: 45 WK), Route [Inhibitor]: ORAL, Species: RAT, Strain/Sex: WISTAR/MALE, Target Tissue: Type of Lesion: COLON: TUMOR, Dose [Carcinogen]: 7.4 MG/KG BW IN 0.9% SALINE 1/WK FOR 10 WK, Promoter: VASOACTIVE INTESTINAL PEPTIDE, 37221-79-7): 14/18 (78%), 6/18 (33%), 58%, p<0.02
- tumour outcome (control, treated, inhibition, significance) (Carcinogen: N-BUTYL-N-(4-HYDROXYBUTYL)NITROSAMINE [3817-11-6], Dose [Inhibitor]: 2 G/L IN DRINKING WATER FOR 32 WK BEGINNING 2 D POST LAST CARCINOGEN DOSE (STUDY DURATION: 36 WK), Route [Inhibitor]: ORAL, Species: RAT, Strain/Sex: F344/MALE, Target Tissue: Type of Lesion: URINARY BLADDER: CARCINOMA, Dose [Carcinogen]: 0.05% IN DRINKING WATER FOR 4 WK (STUDY DURATION: 36 WK), Promoter: NONE): 5/17 (29%), 3/17 (18%), 39%, not significant
- tumour outcome (control, treated, inhibition, significance) (Carcinogen: N-BUTYL-N-(4-HYDROXYBUTYL)NITROSAMINE [3817-11-6], Dose [Inhibitor]: 2 G/L IN DRINKING WATER FOR 32 WK BEGINNING 2 D POST LAST CARCINOGEN DOSE (STUDY DURATION: 36 WK), Route [Inhibitor]: ORAL, Species: RAT, Strain/Sex: F344/MALE, Target Tissue: Type of Lesion: URINARY BLADDER: CARCINOMA, Dose [Carcinogen]: 0.05% IN DRINKING WATER FOR 4 WK (STUDY DURATION: 36 WK), Promoter: SODIUM L-ASCORBATE [134-03-2]): 15/15 (100%), 18/18 (100%), 0%, not significant
- tumour outcome (control, treated, inhibition, significance) (Carcinogen: N-BUTYL-N-(4-HYDROXYBUTYL)NITROSAMINE [3817-11-6], Dose [Inhibitor]: 2 G/L IN DRINKING WATER FOR 32 WK BEGINNING 2 D POST LAST CARCINOGEN DOSE (STUDY DURATION: 36 WK), Route [Inhibitor]: ORAL, Species: RAT, Strain/Sex: F344/MALE, Target Tissue: Type of Lesion: URINARY BLADDER: PAPILLOMA, Dose [Carcinogen]: 0.05% IN DRINKING WATER FOR 4 WK (STUDY DURATION: 36 WK), Promoter: SODIUM L-ASCORBATE [134-03-2]): 15/15 (100%), 18/18 (100%), 0%, not significant
- tumour outcome (control, treated, inhibition, significance) (Carcinogen: N-METHYL-N'-NITRO-N-NITROSOGUANIDINE, 70-25-7, Dose [Inhibitor]: 0, 2.5 G/L IN DRINKING WATER BEGINNING 1 WK POST CARCINOGEN TREATMENT AND CONTINUING FOR DURATION OF STUDY (STUDY DURATI, Route [Inhibitor]: ORAL, Species: RAT, Strain/Sex: WISTAR/MALE, Target Tissue: Type of Lesion: STOMACH: ADENOCARCINOMA, Dose [Carcinogen]: 50 UG/ML IN DRINKING WATER FOR 25 WK, Promoter: BOMBESIN, 31362-50-2): 14/20 (70%), 6/20 (30%), 57%, p<0.05
- tumour outcome (control, treated, inhibition, significance) (Carcinogen: N-METHYL-N'-NITRO-N-NITROSOGUANIDINE, 70-25-7, Dose [Inhibitor]: 0, 2.5 G/L IN DRINKING WATER FOR 26 WK BEGINNING 1 WK POST CARCINOGEN TREATMENT (STUDY DURATION: 52 WK), Route [Inhibitor]: ORAL, Species: RAT, Strain/Sex: WISTAR/MALE, Target Tissue: Type of Lesion: GLANDULAR STOMACH: ADENOCARCINOMA, Dose [Carcinogen]: 25 UG/ML IN DRINKING WATER FOR 25 WK, Promoter: SODIUM CHLORIDE, 7647-14-5): 14/19 (74%), 6/20 (30%), 59%, p<0.02
- tumour outcome (control, treated, inhibition, significance) (Carcinogen: N-METHYL-N'-NITRO-N-NITROSOGUANIDINE, 70-25-7, Dose [Inhibitor]: 0, 25 G/L IN DRINKING WATER FOR 26 WK BEGINNING 1/WK POST CARCINOGEN TREATMENT (STUDY DURATION: 52 WK), Route [Inhibitor]: ORAL, Species: RAT, Strain/Sex: WISTAR/MALE, Target Tissue: Type of Lesion: STOMACH: ADENOCARCINOMA, Dose [Carcinogen]: 25 UG/ML IN DRINKING WATER FOR 25 WK, Promoter: TYROSINE METHYL ESTER, 1080-06-4): 15/18 (83%), 8/18 (44%), 47%, p<0.05

Structure (SMILES): CCCCCCCCCCCCOC(=O)c1cc(O)c(O)c(O)c1
- tumour outcome (control, treated, inhibition, significance) (Carcinogen: 7,12-DIMETHYLBENZ[A]ANTHRACENE, 57-97-6, Dose [Inhibitor]: 0, 10 UMOL IN 0.4 ML ACETONE 20 MIN PRIOR TO EACH PROMOTER DOSE (STUDY DURATION: 47 WK), Route [Inhibitor]: DERMAL, Species: MOUSE, Strain/Sex: CF-1/FEMALE, Target Tissue: Type of Lesion: SKIN: CARCINOMA, Dose [Carcinogen]: 100 NMOL IN 0.2 ML ACETONE ONCE): 67%, 17%, 75%, not calculated
- tumour outcome (control, treated, inhibition, significance) (Carcinogen: 7,12-DIMETHYLBENZ[A]ANTHRACENE, 57-97-6, Dose [Inhibitor]: 0, 10 UMOL IN 0.4 ML ACETONE 20 MIN PRIOR TO EACH PROMOTER DOSE (STUDY DURATION: 47 WK), Route [Inhibitor]: DERMAL, Species: MOUSE, Strain/Sex: CF-1/FEMALE, Target Tissue: Type of Lesion: SKIN: PAPILLOMA, Dose [Carcinogen]: 100 NMOL IN 0.2 ML ACETONE ONCE): 94%, 90%, 4%, not calculated

Structure (SMILES): Brc1cc2c(cc1Br)Oc1cc(Br)c(Br)cc1O2
- tumour outcome (control, treated, inhibition, significance) (Carcinogen: 7,12-DIMETHYLBENZ[A]ANTHRACENE, 57-97-6, Dose [Inhibitor]: 0, 17 NMOL 2/WK APPLIED 1 HR PRIOR TO EACH PROMOTER DOSE FOR 10 WK (STUDY DURATION: 11 WK), Route [Inhibitor]: DERMAL, Species: MOUSE, Target Tissue: Type of Lesion: SKIN: TUMOR, Dose [Carcinogen]: 390 NMOL ONCE, Promoter: 12-O-TETRADECANOYLPHORBOL-13-ACETATE, 16561-29-8): 100%, 0%, 100%, not calculated

Structure (SMILES): Oc1cc(O)c2c(c1)O[C@H](c1cc(O)c(O)c(O)c1)[C@H](O)C2
- tumour outcome (control, treated, inhibition, significance) (Carcinogen: 4-METHYLNITROSAMINO-1-(3-PYRIDYL)-1-BUTANONE, 64091-91-4, Dose [Inhibitor]: 0, 560 PPM IN DRINKING WATER 2 WK PRIOR TO CARCINOGEN AND CONTINUING FOR 13 WK (STUDY DURATION: 29 WK), Route [Inhibitor]: ORAL, Species: MOUSE, Strain/Sex: A/J/FEMALE, Target Tissue: Type of Lesion: LUNG: ADENOMA, Dose [Carcinogen]: 11.65 MG/KG IN CORN OIL 3/WK FOR 10 WK, Promoter: NONE USED): 100%, 100%, 0%, not significant
- tumour outcome (control, treated, inhibition, significance) (Carcinogen: N-ETHYL-N'-NITRO-N-NITROSOGUANIDINE, 4245-77-6, Dose [Inhibitor]: 0, 0.005% IN DRINKING WATER BEGINNING POST CARCINOGEN TREATMENT AND CONTINUING FOR DURATION OF STUDY (STUDY DURATION: 16, Route [Inhibitor]: ORAL, Species: MOUSE, Strain/Sex: C57BL/MALE, Target Tissue: Type of Lesion: DUODENUM: TUMOR, Dose [Carcinogen]: 100 MG/L IN DRINKING WATER FOR 4 WK, Promoter: NONE USED): 20/36 (63%), 6/30 (20%), 68%, p<0.001
- tumour outcome (control, treated, inhibition, significance) (Carcinogen: N-METHYL-N'-NITRO-N-NITROSOGUANIDINE, 70-25-7, Dose [Inhibitor]: 0, 0.005% IN DRINKING WATER BEGINNING POST CARCINOGEN TREATMENT AND CONTINUING FOR DURATION OF STUDY (STUDY DURATION: 44, Route [Inhibitor]: ORAL, Species: RAT, Strain/Sex: WISTAR/MALE, Target Tissue: Type of Lesion: GLANDULAR STOMACH: TUMOR, Dose [Carcinogen]: 100 MG/L IN DRINKING WATER FOR 28 WK, Promoter: NONE USED): 10/14 (71%), 6/10 (60%), 15%, not significant
- tumour outcome (control, treated, inhibition, significance) (Carcinogen: N-METHYL-N'-NITRO-N-NITROSOGUANIDINE, 70-25-7, Dose [Inhibitor]: 0, 0.05% IN DRINKING WATER BEGINNING POST CARCINOGEN TREATMENT AND CONTINUING FOR DURATION OF STUDY (STUDY DURATION: 44, Route [Inhibitor]: ORAL, Species: RAT, Strain/Sex: WISTAR/MALE, Target Tissue: Type of Lesion: GLANDULAR STOMACH: TUMOR, Dose [Carcinogen]: 80 MG/L IN DRINKING WATER FOR 28 WK, Promoter: NONE USED): 21/34 (62%), 11/35 (31%), 50%, p<0.05
- tumour outcome (control, treated, inhibition, significance) (Carcinogen: PEROXYNITRITE [19059-14-4], Dose [Inhibitor]: 0.0025% IN WATER FROM 1 WK BEFORE TO 1 WK AFTER INITIATION, Route [Inhibitor]: DRINKING WATER, Species: MOUSE, Strain/Sex: SENCAR/FEMALE, Target Tissue: Type of Lesion: SKIN: PAPILLOMA, Dose [Carcinogen]: 390 UMOL ONCE (STUDY DURATION: 20 WKS), Promoter: TETRADECANOYL PHORBOL ACETATE [16561-29-8]): 100%; 10%, 90% (at wk 11)
